Experimental data taken from patent US20260137693A1, “CANCER TREATMENTS USING MTA-COOPERATIVE PRMT5 INHIBITORS AND MAT2A INHIBITORS” (AMGEN INC., priority 2022, published 2026).

Legend:
[1] = system: Pancreatic cancer cell line BxPC3; assay: Combination of Compound A and Compound B, CellTiter-Glo cell viability, BxPC3 (Example 2); format: cell-based; conditions: BxPC3, 6 days, up to 10 μM
Experimental: (§1) Pancreatic cancer cell line BxPC3 was treated with the combination of Compound A and Compound B for 6 days. Top concentration of Compound A tested was 2 μM with a total of nine 1.9-fold dilutions and DMSO-only control. Top concentration of Compound B tested was 10 μM with a total of five 2-fold dilutions and DMSO-only control. Cell viability was measured by the CellTiter-Glo Luminescence assay. Raw luminescent values were converted to POC with the following equation: POC=100*(Treatment/Vehicle). FIG. 2 represents 1 of the 3 studies conducted. N=2 technical replicates. Mean and standard deviation graphed.

[2] = system: NSCLC cancer cell line CALU1; assay: Combination of Compound A and Compound B, CellTiter-Glo cell viability, CALU1 (Example 2); format: cell-based; conditions: CALU1, 6 days, up to 10 μM
Experimental: as §1, with “NSCLC cancer” for “Pancreatic cancer”, “line CALU1” for “line BxPC3”, “was 10” for “was 2”, “FIG. 1” for “FIG. 2”, “the 2” for “the 3”

Structure (SMILES): Nc1nc(=O)n(-c2ccccc2Cl)c2nc(C(F)(F)F)ccc12 [Compound B, 4-amino-1-(2-chlorophenyl)-7-(trifluoromethyl)pyrido[2,3-d]pyrimidin-2(1H)-one]
- sensitivity of the model to single agent [1]: insensitive
- sensitivity of the model to single agent [2]: insensitive
